US10174016B2 (BAYER AKTIENGESELLSCHAFT, priority 2014, dated 2019)
pIC50: −log10 of the molar value. Like-named read-outs stand apart in the source and are kept apart here.

Key:
human P2X2/3 receptor = human P2X2/3 receptor (Homo sapiens (Human), UniProt P56373+Q9UBL9); assay: Intracellular calcium measurement (FLIPR, Fluo-4) of antagonist activity at human P2X2/3 receptors; format: cell-based; settings: for pIC50: human P2X2/3, FLIPR calcium assay, agonist α,β-Me-ATP, read-out: hP2X2/3 IC50
Method in brief: (§1)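 Antagonism quantified from peak calcium fluorescence (Fluo-4, FLIPR, 90 sec read) evoked by EC80 α,β-Me-ATP, after a 30 min, 37° C. compound pretreatment in 1% DMSO. Human P2X3- or P2X2/3-expressing cells used; triplicate means fitted for IC50, percent maximal inhibition and Hill coefficient.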

human P2X3 receptor = human P2X3 receptor (Homo sapiens (Human), UniProt P56373); assay: Intracellular calcium measurement (FLIPR, Fluo-4) of antagonist activity at human P2X3 receptors; format: cell-based; settings: read-out: hP2X3 IC50
Method in brief: as §1

[1] = human P2X3, FLIPR calcium assay, agonist α,β-Me-ATP

Chain of human P2X3 receptor (P56373 whole entry): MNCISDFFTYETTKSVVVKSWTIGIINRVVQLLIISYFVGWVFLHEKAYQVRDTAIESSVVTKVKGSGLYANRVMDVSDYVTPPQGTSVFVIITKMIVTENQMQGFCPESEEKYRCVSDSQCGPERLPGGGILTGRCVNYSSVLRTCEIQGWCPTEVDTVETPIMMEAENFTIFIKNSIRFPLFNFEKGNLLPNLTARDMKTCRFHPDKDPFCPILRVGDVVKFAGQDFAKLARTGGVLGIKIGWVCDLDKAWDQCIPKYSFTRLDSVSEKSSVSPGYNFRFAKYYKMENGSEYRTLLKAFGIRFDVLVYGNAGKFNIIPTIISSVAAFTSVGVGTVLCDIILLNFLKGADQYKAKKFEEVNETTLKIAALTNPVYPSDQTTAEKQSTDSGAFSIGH
Chain of human P2X2/3 receptor (P56373 whole entry): as above
Chain of human P2X2/3 receptor (Q9UBL9 whole entry): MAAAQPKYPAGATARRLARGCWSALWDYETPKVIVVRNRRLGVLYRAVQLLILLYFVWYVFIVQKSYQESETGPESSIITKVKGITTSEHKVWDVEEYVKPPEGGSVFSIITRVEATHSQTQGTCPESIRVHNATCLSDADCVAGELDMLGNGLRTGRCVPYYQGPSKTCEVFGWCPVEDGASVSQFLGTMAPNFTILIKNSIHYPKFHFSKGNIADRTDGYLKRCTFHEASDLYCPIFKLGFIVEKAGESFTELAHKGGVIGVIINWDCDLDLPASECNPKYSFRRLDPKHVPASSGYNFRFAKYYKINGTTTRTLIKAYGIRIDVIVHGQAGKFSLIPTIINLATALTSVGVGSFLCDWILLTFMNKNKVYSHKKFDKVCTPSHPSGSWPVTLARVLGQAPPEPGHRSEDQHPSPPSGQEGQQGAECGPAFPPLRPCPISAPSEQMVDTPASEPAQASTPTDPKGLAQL

Compound `COC(C)(C)COc1cc(C(=O)N[C@H](C)c2cnc(C(F)(F)F)nc2)cc(-c2ncc(Cl)s2)c1` [Example 116, 3-(5-Chloro-1,3-thiazol-2-yl)-5-(2-methoxy-2-methylpropoxy)-N-{(1R)-1-[2-(trifluoromethyl)pyrimidin-5-yl]ethyl}benzamide] has a pIC50 (human P2X2/3 receptor) of 5.19 and a pIC50 (human P2X3 receptor; [1]) of 6.68.

`COC(C)(C)COc1cc(C(=O)N[C@H](C)c2cnc(C)cn2)cc(-c2ncc(Cl)s2)c1` [Example 117, 3-(5-Chloro-1,3-thiazol-2-yl)-5-(2-methoxy-2-methylpropoxy)-N-[(1R)-1-(5-methylpyrazin-2-yl)ethyl]benzamide] gave a pIC50 (human P2X2/3 receptor) of 6.05 and a pIC50 (human P2X3 receptor; [1]) of 7.44.

Compound `Cc1ccc(CNC(=O)c2cc(OCC3CCOCC3)cc(-c3ncc(C(F)(F)F)s3)c2)nn1` [Example 118, N-[(6-Methylpyridazin-3-yl)methyl]-3-(tetrahydro-2H-pyran-4-ylmethoxy)-5-[5-(trifluoromethyl)-1,3-thiazol-2-yl]benzamide] has a pIC50 (human P2X2/3 receptor) of 5.95 and a pIC50 (human P2X3 receptor; [1]) of 6.70.

In the case of `Cc1ccc(CNC(=O)c2cc(OCC3CCOCC3)cc(-c3ncc(C4CCC4)s3)c2)nn1` [Example 119, 3-(5-Cyclobutyl-1,3-thiazol-2-yl)-N-[(6-methylpyridazin-3-yl)methyl]-5-(tetrahydro-2H-pyran-4-ylmethoxy)benzamide], the pIC50 (human P2X2/3 receptor) was 6.72 and the pIC50 (human P2X3 receptor; [1]) was 7.62.

For `C[C@@H](NC(=O)c1cc(OCC2CCOCC2)cc(-c2ncc(C3CCC3)s2)c1)c1cnc(C(F)(F)F)nc1` [Example 120, 3-(5-Cyclobutyl-1,3-thiazol-2-yl)-5-(tetrahydro-2H-pyran-4-ylmethoxy)-N-{(1R)-1-[2-(trifluoromethyl)pyrimidin-5-yl]ethyl}benzamide], the pIC50 (human P2X2/3 receptor) was 6.98 and the pIC50 (human P2X3 receptor; [1]) was 7.85.

Work on `Cc1ccc(CNC(=O)c2cc(OC[C@H]3CCOC3)cc(-c3ncc(C4CCC4)s3)c2)nn1` [Example 122, 3-(5-Cyclobutyl-1,3-thiazol-2-yl)-N-[(6-methylpyridazin-3-yl)methyl]-5-[(3S)-tetrahydrofuran-3-ylmethoxy]benzamide] yielded a pIC50 (human P2X2/3 receptor) of 5.93 and a pIC50 (human P2X3 receptor; [1]) of 6.97.

`C[C@@H](NC(=O)c1cc(OC[C@H]2CCOC2)cc(-c2ncc(C3CCC3)s2)c1)c1cnc(C(F)(F)F)nc1` [Example 123, 3-(5-Cyclobutyl-1,3-thiazol-2-yl)-5-[(3S)-tetrahydrofuran-3-ylmethoxy]-N-{(1R)-1-[2-(trifluoromethyl)pyrimidin-5-yl]ethyl}benzamide] showed a pIC50 (human P2X2/3 receptor) of 6.79 and a pIC50 (human P2X3 receptor; [1]) of 7.34.

`Cc1ncc([C@@H](C)NC(=O)c2cc(OCC3CCOCC3)cc(-c3ncc(C4CCC4)s3)c2)cn1` [Example 124, 3-(5-Cyclobutyl-1,3-thiazol-2-yl)-N-[(1R)-1-(2-methylpyrimidin-5-yl)ethyl]-5-(tetrahydro-2H-pyran-4-ylmethoxy)benzamide] gave a pIC50 (human P2X2/3 receptor) of 6.78 and a pIC50 (human P2X3 receptor; [1]) of 7.57.

In the case of `CCc1cnc(-c2cc(OCC3CCOCC3)cc(C(=O)N[C@H](C)c3cnc(C)nc3)c2)s1` [Example 125, 3-(5-Ethyl-1,3-thiazol-2-yl)-N-[(1R)-1-(2-methylpyrimidin-5-yl)ethyl]-5-(tetrahydro-2H-pyran-4-ylmethoxy)benzamide], the pIC50 (human P2X2/3 receptor) was 7.57 and the pIC50 (human P2X3 receptor; [1]) was 8.52.

`Cc1ncc([C@@H](C)NC(=O)c2cc(OCC3CCOCC3)cc(-c3ncc(C(C)C)s3)c2)cn1` [Example 126, N-[(1R)-1-(2-Methylpyrimidin-5-yl)ethyl]-3-[5-(propan-2-yl)-1,3-thiazol-2-yl]-5-(tetrahydro-2H-pyran-4-ylmethoxy)benzamide] was tested, and the pIC50 (human P2X2/3 receptor) was 6.27 and the pIC50 (human P2X3 receptor; [1]) was 7.47.

For `CCc1cnc(-c2cc(OC3CCOCC3)cc(C(=O)N[C@H](C)c3ccc(C)nn3)c2)s1` [Example 128, 3-(5-Ethyl-1,3-thiazol-2-yl)-N-[(1R)-1-(6-methylpyridazin-3-yl)ethyl]-5-(tetrahydro-2H-pyran-4-yloxy)benzamide], the pIC50 (human P2X2/3 receptor) was 7.04 and the pIC50 (human P2X3 receptor; [1]) was 8.00.

`CCc1cnc(-c2cc(OC3CCOCC3)cc(C(=O)N[C@H](C)c3cnc(C(F)(F)F)nc3)c2)s1` [Example 129, 3-(5-Ethyl-1,3-thiazol-2-yl)-5-(tetrahydro-2H-pyran-4-yloxy)-N-{(1R)-1-[2-(trifluoromethyl)pyrimidin-5-yl]ethyl}benzamide] showed a pIC50 (human P2X2/3 receptor) of 7.48 and a pIC50 (human P2X3 receptor; [1]) of 8.52.

Work on `Cc1ncc([C@@H](C)NC(=O)c2cc(O[C@H]3CCOC3)cc(-c3ncc(C)s3)c2)cn1` [Example 130, N-[(1R)-1-(2-Methylpyrimidin-5-yl)ethyl]-3-(5-methyl-1,3-thiazol-2-yl)-5-[(3S)-tetrahydrofuran-3-yloxy]benzamide] yielded an IC50 (human P2X2/3 receptor; hP2X2/3 IC50 (nM)) of 1350 nM and a pIC50 (human P2X3 receptor) of 7.13.

`Cc1ccc(Oc2cc(C(=O)N[C@H](C)c3cnc(C)cn3)cc(-c3ncc(C)s3)c2)cn1` [Example 131, N-[(1R)-1-(5-methylpyrazin-2-yl)ethyl]-3-[(6-methylpyridin-3-yl)oxy]-5-(5-methyl-1,3-thiazol-2-yl)benzamide] was tested, and the pIC50 (human P2X2/3 receptor) was 6.14 and the pIC50 (human P2X3 receptor; [1]) was 6.87.

Compound `Cc1cnc(-c2cc(O[C@H]3CCOC3)cc(C(=O)NC(C)c3ncc(F)cc3Cl)c2)s1` (stereo partly drawn) [Example 132, N-[1-(3-Chloro-5-fluoropyridin-2-yl)ethyl]-3-(5-methyl-1,3-thiazol-2-yl)-5-[(3S)-tetrahydrofuran-3-yloxy]benzamide] has a pIC50 (human P2X2/3 receptor) of 5.69 and a pIC50 (human P2X3 receptor; [1]) of 7.12.

`Cc1ccc(CNC(=O)c2cc(O[C@H]3CCOC3)cc(-c3ncc(C)s3)c2)nn1` [Example 133, N-[(6-Methylpyridazin-3-yl)methyl]-3-(5-methyl-1,3-thiazol-2-yl)-5-[(3S)-tetrahydrofuran-3-yloxy]benzamide] showed a pIC50 (human P2X2/3 receptor) of at most 5.00 and a pIC50 (human P2X3 receptor; [1]) of 6.75.

Work on `Cc1cnc(-c2cc(O[C@H]3CCOC3)cc(C(=O)NC(C)c3ncc(Cl)cc3F)c2)s1` (stereo partly drawn) [Example 134, N-[1-(5-Chloro-3-fluoropyridin-2-yl)ethyl]-3-(5-methyl-1,3-thiazol-2-yl)-5-[(3S)-tetrahydrofuran-3-yloxy]benzamide] yielded a pIC50 (human P2X2/3 receptor) of 6.68 and a pIC50 (human P2X3 receptor; [1]) of 7.82.

With `Cc1ccc([C@@H](C)NC(=O)c2cc(OC[C@H]3CCOC3)cc(-c3ncc(C4CCC4)s3)c2)nn1` [Example 135, 3-(5-Cyclobutyl-1,3-thiazol-2-yl)-N-[(1R)-1-(6-methylpyridazin-3-yl)ethyl]-5-[(3S)-tetrahydrofuran-3-ylmethoxy]benzamide] the pIC50 (human P2X2/3 receptor) was 6.68 and the pIC50 (human P2X3 receptor; [1]) was 7.46.

`COCCOc1cc(C(=O)N[C@H](C)c2cnc(C)nc2)cc(-c2ncc(C)s2)c1` [Example 136, 3-(2-Methoxyethoxy)-N-[(1R)-1-(2-methylpyrimidin-5-yl)ethyl]-5-(5-methyl-1,3-thiazol-2-yl)benzamide] gave a pIC50 (human P2X2/3 receptor) of 5.56 and a pIC50 (human P2X3 receptor; [1]) of 6.71.

In the case of `Cc1cnc(-c2cc(OC3CCN(C(=O)OC(C)(C)C)CC3)cc(C(=O)N[C@H](C)c3cnc(C(F)(F)F)nc3)c2)s1` [Example 137, tert-Butyl 4-[3-(5-methyl-1,3-thiazol-2-yl)-5-({(1R)-1-[2-(trifluoromethyl)pyrimidin-5-yl]ethyl}carbamoyl)phenoxy]piperidine-1-carboxylate], the pIC50 (human P2X2/3 receptor) was 6.48 and the pIC50 (human P2X3 receptor) was 7.59.

With `Cc1cnc(-c2cc(OC3CCN(C)CC3)cc(C(=O)N[C@H](C)c3cnc(C(F)(F)F)nc3)c2)s1` [Example 139, 3-[(1-Methylpiperidin-4-yl)oxy]-5-(5-methyl-1,3-thiazol-2-yl)-N-{(1R)-1-[2-(trifluoromethyl)pyrimidin-5-yl]ethyl}benzamide] the pIC50 (human P2X2/3 receptor) was 6.02 and the pIC50 (human P2X3 receptor; [1]) was 8.10.

Compound `Cc1cnc(-c2cc(OC3CCN(C(C)C)CC3)cc(C(=O)N[C@H](C)c3cnc(C(F)(F)F)nc3)c2)s1` [Example 140, 3-(5-Methyl-1,3-thiazol-2-yl)-5-{[1-(propan-2-yl)piperidin-4-yl]oxy}-N-{(1R)-1-[2-(trifluoromethyl)pyrimidin-5-yl]ethyl}benzamide] has a pIC50 (human P2X2/3 receptor) of 5.89 and a pIC50 (human P2X3 receptor; [1]) of 7.48.

`Cc1cnc(-c2cc(O[C@@H]3CCN(C)C3)cc(C(=O)N[C@H](C)c3cnc(C(F)(F)F)nc3)c2)s1` [Example 141, 3-{[(3R)-1-Methylpyrrolidin-3-yl]oxy}-5-(5-methyl-1,3-thiazol-2-yl)-N-{(1R)-1-[2-(trifluoromethyl)pyrimidin-5-yl]ethyl}benzamide] was tested, and the pIC50 (human P2X2/3 receptor) was 5.66 and the pIC50 (human P2X3 receptor; [1]) was 7.37.

For `Cc1cnc(-c2cc(O[C@H]3CCN(C)C3)cc(C(=O)N[C@H](C)c3cnc(C(F)(F)F)nc3)c2)s1` [Example 142, 3-{[(3S)-1-Methylpyrrolidin-3-yl]oxy}-5-(5-methyl-1,3-thiazol-2-yl)-N-{(1R)-1-[2-(trifluoromethyl)pyrimidin-5-yl]ethyl}benzamide], the pIC50 (human P2X2/3 receptor) was 6.65 and the pIC50 (human P2X3 receptor; [1]) was 8.22.

For `Cc1cnc(-c2cc(OC3CN(C)C3)cc(C(=O)N[C@H](C)c3cnc(C(F)(F)F)nc3)c2)s1` [Example 143, 3-[(1-Methylazetidin-3-yl)oxy]-5-(5-methyl-1,3-thiazol-2-yl)-N-{(1R)-1-[2-(trifluoromethyl)pyrimidin-5-yl]ethyl}benzamide], the pIC50 (human P2X2/3 receptor) was 5.52 and the pIC50 (human P2X3 receptor; [1]) was 7.08.

`C#CCOc1cc(C(=O)N[C@@H](C)c2cnc(C(F)(F)F)nc2)cc(-c2ncc(C)s2)c1` [Example 144, 3-(5-Methyl-1,3-thiazol-2-yl)-5-(prop-2-yn-1-yloxy)-N-{(1S)-1-[2-(trifluoromethyl)pyrimidin-5-yl]ethyl}benzamide] was tested, and the pIC50 (human P2X2/3 receptor) was at most 5.00 and the pIC50 (human P2X3 receptor; [1]) was 6.08.

`Cc1cnc(-c2cc(OC3CCOCC3)cc(C(=O)N[C@@H](C)c3cnc(C(F)(F)F)nc3)c2)s1` [Example 145, 3-(5-Methyl-1,3-thiazol-2-yl)-5-(tetrahydro-2H-pyran-4-yloxy)-N-{(1S)-1-[2-(trifluoromethyl)pyrimidin-5-yl]ethyl}benzamide] showed a pIC50 (human P2X2/3 receptor) of 5.35 and a pIC50 (human P2X3 receptor; [1]) of 6.57.

Compound `Cc1cnc(-c2cc(OC3CC4(C3)CN(C(=O)OC(C)(C)C)C4)cc(C(=O)N[C@H](C)c3cnc(C(F)(F)F)nc3)c2)s1` [Example 146, tert-butyl 6-[3-(5-methyl-1,3-thiazol-2-yl)-5-({(1R)-1-[2-(trifluoromethyl)pyrimidin-5-yl]ethyl}carbamoyl)phenoxy]-2-azaspiro[3.3]heptane-2-carboxylate] has a pIC50 (human P2X2/3 receptor) of 6.80 and a pIC50 (human P2X3 receptor; [1]) of 7.35.
